The values below come from US5599953A, “C-glycoside analogues of N-(4-hydroxyphenyl)retinamide-O-glucuronide” (The Ohio State Research Foundation, priority 1995, dated 1997).

Like-named read-outs stand apart in the source and are kept apart here.

What is called Km is the concentration of substrate that gives half-maximal velocity.

Series [1] is described as follows: Acid stability, 0.1N methanolic HCl at 37° C. for 2 hours. It is filed as physicochemical. As for the experimental part: To determine the stability of the C-glucopyranosiduronate linkage towards acidic conditions, samples of 4-HPR-O-glucuronide, 4-(retinamido)phenyl-C-glucuronide and 4-(retinamido)benzyl-C-glucuronide were treated with 0.1N methanolic HCl at 37° C. for 2 hours.

Series [2] deals with T1, mRARγ (Mus musculus, UniProt P18911).
T1 construct: made in house; host or cells: Spodoptera frugiperda insect cells, baculovirus (whole cell extract)
T1 sequence (P18911 1-458): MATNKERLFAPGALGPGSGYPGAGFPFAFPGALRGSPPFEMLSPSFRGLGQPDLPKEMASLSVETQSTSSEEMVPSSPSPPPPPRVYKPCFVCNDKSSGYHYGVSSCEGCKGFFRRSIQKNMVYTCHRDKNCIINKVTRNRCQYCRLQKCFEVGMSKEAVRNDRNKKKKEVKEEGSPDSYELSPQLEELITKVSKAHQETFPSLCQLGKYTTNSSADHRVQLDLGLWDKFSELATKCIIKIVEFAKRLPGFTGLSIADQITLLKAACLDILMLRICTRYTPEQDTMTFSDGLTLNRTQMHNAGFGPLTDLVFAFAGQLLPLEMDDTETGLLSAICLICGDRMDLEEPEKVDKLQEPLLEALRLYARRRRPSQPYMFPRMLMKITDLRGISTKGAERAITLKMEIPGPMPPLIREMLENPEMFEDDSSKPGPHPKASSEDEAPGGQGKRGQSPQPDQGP
Kind of series: Drug competition with (3H)retinoic acid binding, mRARγ. Conditions: read-out: percent reduction of binding of the (3H)retinoic acid, mRARγ; 1 μM drug; 5 nM [3H]RA.

Series [3] concerns the target T2, β-glucuronidase (Homo sapiens, UniProt P08236).
T2 sequence (P08236 23-651): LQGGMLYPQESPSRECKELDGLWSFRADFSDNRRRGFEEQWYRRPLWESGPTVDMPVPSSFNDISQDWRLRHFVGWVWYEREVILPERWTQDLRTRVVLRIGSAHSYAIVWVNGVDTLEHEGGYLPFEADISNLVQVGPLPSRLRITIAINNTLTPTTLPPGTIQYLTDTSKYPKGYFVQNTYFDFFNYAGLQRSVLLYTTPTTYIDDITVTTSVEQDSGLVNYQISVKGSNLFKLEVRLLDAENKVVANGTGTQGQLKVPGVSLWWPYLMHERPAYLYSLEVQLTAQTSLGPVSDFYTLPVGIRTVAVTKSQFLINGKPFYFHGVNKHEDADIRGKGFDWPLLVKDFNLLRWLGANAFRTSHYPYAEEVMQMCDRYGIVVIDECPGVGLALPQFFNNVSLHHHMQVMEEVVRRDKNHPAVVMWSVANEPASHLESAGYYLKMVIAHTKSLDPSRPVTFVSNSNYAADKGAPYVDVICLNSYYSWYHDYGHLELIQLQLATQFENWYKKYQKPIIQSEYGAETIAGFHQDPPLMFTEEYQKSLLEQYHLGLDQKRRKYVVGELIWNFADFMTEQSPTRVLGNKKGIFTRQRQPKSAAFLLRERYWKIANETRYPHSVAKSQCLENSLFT
The experiment in a line: Stability toward β-glucuronidase mediated hydrolysis. It is filed as in vitro ADME. As to conditions: β-glucuronidase. The method, then:
Similarly 1-(D-glucopyranosyluronosyl) retinamide and RAG were evaluated for their stability toward β-glucuronidase medicated hydrolysis under the same conditions as described above.

For series [4] the following is noted: background statement; cited from earlier work.
Series [5] concerns the target T3, mRARβ (Mus musculus, UniProt P22605).
T3 construct: made in house; host or cells: Spodoptera frugiperda insect cells, baculovirus (whole cell extract)
T3 sequence (P22605 1-448 isoform P22605-3): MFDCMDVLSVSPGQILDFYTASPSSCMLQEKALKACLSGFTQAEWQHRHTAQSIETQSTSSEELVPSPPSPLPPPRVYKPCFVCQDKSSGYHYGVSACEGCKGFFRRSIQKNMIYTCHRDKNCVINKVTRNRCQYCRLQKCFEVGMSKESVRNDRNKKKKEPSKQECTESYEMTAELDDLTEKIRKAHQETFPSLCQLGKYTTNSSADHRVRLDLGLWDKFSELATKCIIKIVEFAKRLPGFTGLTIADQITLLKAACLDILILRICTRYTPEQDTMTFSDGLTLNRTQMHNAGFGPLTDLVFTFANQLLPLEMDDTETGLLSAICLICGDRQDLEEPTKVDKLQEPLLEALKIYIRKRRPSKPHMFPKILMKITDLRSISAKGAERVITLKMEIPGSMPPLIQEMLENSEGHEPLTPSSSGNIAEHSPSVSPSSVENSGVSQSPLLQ
The experiment in a line: Drug competition with (3H)retinoic acid binding, mRARβ. As to conditions: read-out: percent reduction of binding of the (3H)retinoic acid, mRARβ; 1 μM drug; 5 nM [3H]RA.

Series [6] relates to MCF-7 human mammary cell tumor culture. Conditions: Bhatnagar et al.; cited from earlier work.
Series [7] addresses T4, mRARα (Mus musculus, UniProt P11416).
T4 construct: made in house; host or cells: Spodoptera frugiperda insect cells, baculovirus (whole cell extract)
T4 sequence (P11416 1-462): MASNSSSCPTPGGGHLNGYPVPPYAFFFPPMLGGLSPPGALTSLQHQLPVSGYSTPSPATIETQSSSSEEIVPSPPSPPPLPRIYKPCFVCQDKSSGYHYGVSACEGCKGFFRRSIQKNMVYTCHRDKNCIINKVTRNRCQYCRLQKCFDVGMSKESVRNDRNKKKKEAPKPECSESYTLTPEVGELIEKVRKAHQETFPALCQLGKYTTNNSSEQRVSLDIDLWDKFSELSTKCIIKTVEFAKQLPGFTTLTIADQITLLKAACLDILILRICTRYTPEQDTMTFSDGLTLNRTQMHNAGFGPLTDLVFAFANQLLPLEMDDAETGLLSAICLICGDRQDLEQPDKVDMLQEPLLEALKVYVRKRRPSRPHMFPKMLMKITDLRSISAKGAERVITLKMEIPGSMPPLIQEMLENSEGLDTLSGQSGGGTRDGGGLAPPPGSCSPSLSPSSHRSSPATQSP
Kind of series: Drug competition with (3H)retinoic acid binding, mRARα. As to conditions: read-out: percent reduction of binding of the (3H)retinoic acid, mRARα.

The target of series [8] is T2, β-glucuronidase. As to conditions: background statement; cited from earlier work.
Series [9] concerns cultured human breast cancer cells. As to conditions: Bhatnagar et al.; cited from earlier work.
Series [10] concerns MCF-7 cells. Kind of series: Growth inhibition of MCF-7 human mammary tumor cells. It is filed as cell-based. Conditions: Homo sapiens, MCF7, 168 h, 7 days, read-out: ED50 for growth inhibition of MCF-7 cells. As for the experimental part:
The antiproliferative activity of the drugs in MCF-7 human mammary tumor cell culture models were determined.
The MCF-7 cells were obtained originally from the Michigan Cancer Foundation. The cells were routinely grown as monolayers in T-25 plastic tissue culture flasks from Falcon, in Oxnard, Calif. containing 5.0 mL of B-10 medium consisting of Minimum Essential Medium (MEM, Earle's Base) supplemented with 1.0 mM MEM non-essential amino acid, 2.0 mM 1-glutamine,10% fetal bovine serum (FBS), and antibiotics. Culture conditions included a humidified atmosphere of 5% CO2 at 37° C. One-half of the medium was replenished twice a week. Cells were harvested by trypsinization upon confluency. All variables were evaluated in triplicate.
For the growth inhibition assay the MCF-7 cells were plated in 24-well plates at a density of 1.5×10^4 cells/cm^2. […] Control cultures were treated with an equivalent volume of absolute ethanol. On day 7 the cells were harvested by trypsinization and viability was assessed by trypan blue exclusion according to Ueda, H. et al. Cancer 1980, 46, 2203-2209. Total cell counts were obtained using a hemocytometer as well as a the Coulter Counter.

Series [11] deals with carcinogen-induced rat mammary tumors. As to conditions: cited from earlier work.
The subject of series [12] is cancer. As to conditions: literature; cited from earlier work.
For series [13], the system named is DMBA-Induced Rat Mammary Tumors. Kind of series: Effect on progression of DMBA-induced rat mammary tumors. In kind it is in vivo. As to conditions: 1 mmol/Kg in diet. The text has this:
The control rats received DMBA intubation only and AIN-76A rat chow.

The test system of series [14] is hamster tracheal in vitamin A deficient epithelial tissue. As to conditions: Newton et al.; cited from earlier work.
Substrate in series [15]: CC1=C(/C=C/C(C)=C/C=C/C(C)=C/C(=O)Nc2ccc(O[C@@H]3O[C@H](C(=O)O)[C@@H](O)[C@H](O)[C@H]3O)cc2)C(C)(C)CCC1
Kind of series: Inhibition of β-glucuronidase mediated hydrolysis of 4-HPR-O-glucuronide. In kind it is biochemical. Conditions: other: 4-HPR-O-glucuronide as substrate. From the text:
Chem. Soc., (1954), 76, 4872-4877.

`CC1=C(/C=C/C(C)=C/C=C/C(C)=C/C(=O)Nc2ccc(O[C@@H]3O[C@H](C(=O)O)[C@@H](O)[C@H](O)[C@H]3O)cc2)C(C)(C)CCC1` [4-HPR-O-glucuronide, N-(4-hydroxyphenyl)retinamide-O-glucuronide]: the “acid hydrolysis (stability)” value in series [1] is recorded as “had undergone substantial hydrolysis of the ether linkage”. Besides, the inhibition at 1 µM in [2] is 7%; in [5] it was 4%; in series [7] (1 μM drug, 5 nM [3H]RA) it was 14%. For the same molecule, the “hydrolysis by β-glucuronidase” value in series [3] was “is hydrolysed to glucuronic acid and the aglycone by β-glucuronidase”; in [8], “also by the enzyme β-glucuronidase”. In addition, the “stability in acidic media” value in series [4] is recorded as “hydrolyzed in acidic media”. The “antiproliferative activity and toxicity vs 4-HPR” value in series [6] is “greater antiproliferative activity and less toxicity”. In addition, the “in vivo half life” value in series [8] is recorded as “quite limited”.
As for `CC1=C(/C=C/C(C)=C/C=C/C(C)=C/C(=O)Nc2ccc(O)cc2)C(C)(C)CCC1` [Example 4-HPR, N-(4-hydroxyphenyl) retinamide, reference compound], the cytotoxicity entry in [9] is reported as “significant cytotoxicity”. The inhibition at 1 µM in series [2] came out at 7%; in series [5], 5%; in series [7] (1 μM drug, 5 nM [3H]RA) it was 18%. The values for the IC50 in series [10] (Assay 1), in series [10] (Assay 2) and in series [10] (Assay 3) were 2800 nM, 1500 nM and 33000 nM, respectively. The “breast cancer chemopreventive activity combined with calcium glucarate” value in [11] is “synergistically exerts an increased breast cancer chemopreventive activity”. The cancer preventive activity entry in [12] is on record as “displays chemopreventive activity in breast cancer”.
On to `CC1=C(/C=C/C(C)=C/C=C/C(C)=C/C(=O)O)C(C)(C)CCC1` [retinoic acid, reference compound], for which the tumor latency in series [13] (15 mg DMBA oral) amounted to 49 days. In series [13] (110 days post intubation), this molecule yielded a tumor incidents of 83% and a tumor number/rat of 1.17 tumors per rat. Besides, in series [2], the inhibition at 1 µM is 100%. Further, the “reversal of metaplastic condition” value in series [14] was “can reverse the metaplastic condition of hamster tracheal in vitamin A deficient epithelial tissue”. Besides, the inhibition at 1 µM in series [7] came out at 100%. In [12], the cancer preventive activity entry is on record as “display cancer preventive activity”.

B1: β-glucuronidase (Homo sapiens) (protein)
chain: LQGGMLYPQESPSRECKELDGLWSFRADFSDNRRRGFEEQWYRRPLWESGPTVDMPVPSSFNDISQDWRLRHFVGWVWYEREVILPERWTQDLRTRVVLRIGSAHSYAIVWVNGVDTLEHEGGYLPFEADISNLVQVGPLPSRLRITIAINNTLTPTTLPPGTIQYLTDTSKYPKGYFVQNTYFDFFNYAGLQRSVLLYTTPTTYIDDITVTTSVEQDSGLVNYQISVKGSNLFKLEVRLLDAENKVVANGTGTQGQLKVPGVSLWWPYLMHERPAYLYSLEVQLTAQTSLGPVSDFYTLPVGIRTVAVTKSQFLINGKPFYFHGVNKHEDADIRGKGFDWPLLVKDFNLLRWLGANAFRTSHYPYAEEVMQMCDRYGIVVIDECPGVGLALPQFFNNVSLHHHMQVMEEVVRRDKNHPAVVMWSVANEPASHLESAGYYLKMVIAHTKSLDPSRPVTFVSNSNYAADKGAPYVDVICLNSYYSWYHDYGHLELIQLQLATQFENWYKKYQKPIIQSEYGAETIAGFHQDPPLMFTEEYQKSLLEQYHLGLDQKRRKYVVGELIWNFADFMTEQSPTRVLGNKKGIFTRQRQPKSAAFLLRERYWKIANETRYPHSVAKSQCLENSLFT
Regarding B1, in [15], the Michaelis-Menten constant (Km) is 184.5 µM.
